Data on seven compounds can be found in paper PMC8400343, “Synthesis and Evaluation of the Antidepressant-like Properties of HBK-10, a Novel 2-Methoxyphenylpiperazine Derivative Targeting the 5-HT1A and D2 Receptors” (Pharmaceuticals, 2021).

SMILES strings stand for the structures. Counter-ions that a name gives are not always drawn. Like-named read-outs stand apart in the source and are kept apart here. Marks after values point to notes of the source that are not given here.

Data set [1] deals with mice. Nature of the data set: Forced swim test in naive mice. It is filed as in vivo, mouse. Conditions: alone. As for the experimental part:
Adult male Albino-Swiss mice (CD-1, 8 weeks old, 18–21g: Jagiellonian University Medical College, Krakow, Poland) were used in all experiments. Unless stated otherwise, the animals were kept in groups of 10 mice in standard cages (37 cm × 21 cm × 15 cm) at a room temperature (22 ± 2 °C), on a 12 h light/dark cycle (lights on 7:00) with ad libitum access to food and water. Mice were used only once in each test. Behavioral experiments were performed between 8 am and 4 pm and evaluated by a trained observer blind to the treatments. Mice were handled for 1 week before starting the experimental procedures. Animals were randomly allocated to the treatment using a computer-generated sequence, and researchers making measurements on the animals or analyzing the results were blind to the allocation. Moreover, experimental groups were distributed across multiple cages, and the location of the mouse cages in the room was changed following each day.
HBK-10, WAY-100635 (Sigma, Darmstadt, Germany), p-chlorophenylalanine (pCPA; Sigma, Darmstadt, Germany), fluoxetine (Sigma, Darmstadt, Germany), reboxetine (Sigma, Darmstadt, Germany) and bupropion (Sigma, Darmstadt, Germany), were suspended in 1% Tween, and administered ip at a volume of 10 mL/kg 30 min before each behavioral test. The control groups received saline ip 30 min prior to testing. The doses of fluoxetine, reboxetine and bupropion as well as WAY-100635 and pCPA were based on our previous studies with 2-methoxyphenylpiperazine derivatives.
(§1) The experiment was performed on mice according to the method described by Porsolt et al. and as previously described. Mice were placed individually in glass cylinders (height 25 cm, diameter 10 cm) filled with water at 24 ± 1 °C to a depth of 10 cm and left there for 6 min. Following a 2 min habituation period, total time spent immobile was recorded during the next 4 min. The animal was considered as immobile when it remained floating passively in the water, making only small movements to keep its head above the water. The experiments were video-recorded and scored using elevenmaze.com software by a trained observer blind to the treatments.
To assess the involvement of a serotonergic system in the antidepressant-like activity of tested compounds in the forced swim test, the mice were pretreated with pCPA (tryptophan hydroxylase inhibitor) according to the method previously described. […]. Twenty-four hours after the last pCPA administration, we injected mice with 1% Tween ip or tested compound. We performed the forced swim test 30 min after the administration.
The putative involvement of 5-HT1A receptors in the antidepressant-like effect of tested compound was studied using WAY-100635 (a selective 5-HT1A receptor antagonist). WAY-100635 at a dose of 0.1 mg/kg was administered sc 15 min prior to the injection of HBK-10. After 30 min the forced swim test was performed. The behaviorally ineffective dose of WAY-100635 used in the experiments was based on our previous experiments.

In data set [2] the test system is serotonin level. Also noted: method as in PMID 9044239. Conditions: 3-day treatment with pCPA; cited from earlier work.
The conditions of data set [3]: MLMs, cited from earlier work; for % Remaining after 30 min: protein concentration 0.5.
Data set [4] deals with 5-HT1A. More on the design: method as in PMID 10073136. The settings on record: cited from earlier work.
Data set [5] concerns the target 5-HT2A. Also noted: method as in PMID 10073136. The settings on record: cited from earlier work.
Data set [6] has as its target α1-adrenoceptor. More on the design: method as in PMID 10073136. Conditions: cited from earlier work.
Data set [7] concerns mice. The settings on record: i.p.; cited from earlier work.
Data set [8] deals with mice. The settings on record: i.p.; cited from earlier work. The source holds these as a separate data set.
Data set [9] deals with voltage-sensitive calcium channels (Cav). More on the design: method as in PMID 10073136. The settings on record: read-out: Ki Cav [3H]-nitrendipine; cited from earlier work.
Data set [10] relates to corticosterone-treated mice. Briefly: Forced swim test in corticosterone-induced mouse model of depression. The data set is classed as in vivo. The settings on record: fluoxetine 15 mg/kg ip, chronic (3 weeks). As for the experimental part:
as §1
(§2) Mice were injected with corticosterone (sc, 20 mg/kg) at random times during the light phase for 21 days. The dose and route of administration of corticosterone were based on our previous study. Control mice received saline containing 0.1% dimethyl sulfoxide (DMSO) and 0.1% Tween (sc). For the next 21 days, 30 min before the corticosterone injection, mice were injected with saline, HBK-10 (0.625 or 1.25 mg/kg), or fluoxetine (15 mg/kg) (ip). Twenty-four hours after the last injection, animals were tested in the forced swim test and locomotor activity test (Figure 8).

Data set [11] concerns corticosterone-treated mice. Nature of the data set: Locomotor activity in corticosterone-treated mice. The data set is classed as in vivo, mouse. Conditions: 15 mg/kg ip chronic, 4 min. As to the method: The locomotor activity of mice was measured as previously described. We used photoresistor actometers (Ugo Basile, Italy) connected to a counter for the recording of light-beam interruptions. Mice were placed individually in cages for 30 min, and the number of crossings of the light beams was recorded as the locomotor activity for 4 min.
as §2

With `N[C@@H](Cc1ccc(Cl)cc1)C(=O)O` (racemic) [pCPA, p-chlorophenylalanine], the “Effect on immobility in the forced swim test” value in data set [1] (pCPA 200 mg/kg ip once daily for three days) was “had no effect on the immobility”. In [2], the “Reduction of serotonin level in midbrain” value is given as 24% and the “Reduction of serotonin level in the cortical regions” value is recorded as “around 30%”.
As for `O=C1CCc2ccc(OCCCCN3CCN(c4cccc(Cl)c4Cl)CC3)cc2N1` [Aripiprazole], the t1/2 in data set [3] (protein concentration 1.0) was 217 ^b min.
As for `O=C1CC2(CCCC2)CC(=O)N1CCCCN1CCN(c2ncccn2)CC1` [Buspirone], the “% Remaining after 30 min” value in data set [3] is recorded as 0.29 ^a %; in data set [3] (listed as buspirone), “lower than 1%”.
On to `COc1ccccc1N1CCN(CCCOc2c(C)cccc2C)CC1` [Compd. I, 1-[3-(2,6-dimethylphenoxy)propyl]-4-(2-methoxyphenyl)piperazine hydrochloride], for which the inhibition constant Ki in [4] was 4.9 nM; in data set [5] it was 192 nM; in data set [6], 2.1 nM.
As for `CC[C@@H](CO)NCCOc1c(C)cccc1C` [Compd. II, (S)-{2-[(2-(2,6-dimethylphenoxy)ethyl]amino}butan-1-ol hydrochloride], in [7], the “MES ED50” value is 7.57 mg/kg. For the same compound, the “Rotarod test TD50” value in data set [8] is 34.45 mg/kg. The Ki in data set [9] was 18 µM.
As for `CNCCC(Oc1ccc(C(F)(F)F)cc1)c1ccccc1` (stereo not drawn) [Fluoxetine, reference compound], in data set [10], the “Decrease of immobility in the forced swim test in corticosterone-treated mice” value is reported as 32%. Also, in [11], the “Number of Crossings ± SEM” value came to 462.5 ± 41.81.
`COc1ccccc1N1CCN(CCN(C(=O)C2CCCCC2)c2ccccn2)CC1` [WAY-100635, reference compound]: the “Effect on immobility in the forced swim test” value in data set [1] (WAY-100635 0.1 mg/kg sc) is recorded as “had no effect on the immobility”.
